In PMC12004446, “Inhibition by 4-(4-Bromo-2-oxo-3H-benzimidazol-1-yl)-N-(4-iodophenyl)piperidine-1-carboxamide (TH5487) of the Activity of Human 8-Oxoguanine DNA Glycosylase-1 (OGG1) for the Excision of 2,6-Diamino-4-hydroxy-5-formamidopyrimidine, 4,6-Diamino-5-formamidopyrimidine, and 8-Oxoguanine from Oxidatively …” (Biochemistry, 2025) one finds IC50 data, which are given here for one compound.

This assay concerns the target T1, human 8-oxoguanine DNA glycosylase-1 (hOGG1) (Homo sapiens, UniProt O15527).
T1 construct: gene OGG1
The assay can be described thus: fluorescence-based 8-oxo-Gua duplex oligodeoxynucleotide incision assay with purified hOGG1; also GC-MS/MS of lesion excision from genomic DNA. Type of assay: biochemical.

T1 sequence (O15527 whole entry): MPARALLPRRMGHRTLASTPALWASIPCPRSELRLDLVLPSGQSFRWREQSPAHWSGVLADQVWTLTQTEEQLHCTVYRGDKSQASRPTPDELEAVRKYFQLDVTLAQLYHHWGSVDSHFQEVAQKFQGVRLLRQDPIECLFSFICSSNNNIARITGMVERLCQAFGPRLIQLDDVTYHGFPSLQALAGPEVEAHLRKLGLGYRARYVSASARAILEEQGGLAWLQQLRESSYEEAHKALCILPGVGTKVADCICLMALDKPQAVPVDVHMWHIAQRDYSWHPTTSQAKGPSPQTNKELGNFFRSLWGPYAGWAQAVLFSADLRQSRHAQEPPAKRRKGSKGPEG

In general, IC50 refers to the concentration needed to halve the response being measured. A lower IC50 goes with greater potency. Turning to `O=C(Nc1ccc(I)cc1)N1CCC(n2c(=O)[nH]c3c(Br)cccc32)CC1` [TH5487, 4-(4-bromo-2-oxo-3H-benzimidazol-1-yl)-N-(4-iodophenyl)piperidine-1-carboxamide], the IC50 amounted to 800 nM.
